According to patent publication US9555038B2, “Heterocycle-substituted tetracyclic compounds and methods of use thereof for the treatment of viral diseases” (Merck Sharp & Dohme Corp., priority 2013, dated 2017):
Read-outs that look alike come from different tables or passages of the source.

What was measured:
HCV replicon 2B = assay: Cell-based HCV Replicon Assay A, replicon 2B
Description: (§1) To measure cell-based anti-HCV activity of compounds of the present invention, two complimentary assays were employed using various replicons. In the first assay (“Replicon Assay A”), replicon cells were seeded at 2000 cells/well in 384-well 384-well flat bottom tissue culture treated clear bottom plate (Corning 3707) in the presence of the test compound. Various concentrations of test compound, typically in 10 serial dilutions, were added to the assay mixture, with the starting concentration ranging from 333.3 nM to […]. The final concentration of DMSO was 0.5%. Fetal bovine serum was 5%, in the assay media. Cells were harvested on day 3 by removing media and washing the cells with a suitable wash buffer. The cells are lysed with the addition of 1× Qiagen lysis buffer (Cat #1062731). The replicon RNA level was measured using real time PCR (TaqMan® EZ RT-PCR, Applied Biosystems 403028) with the following primers and probes: […]
(§2) Cyclophilin RNA was used as endogenous control and was amplified in the same reaction as NS5B (multiplex PCR). The real-time RT-PCR reactions were run on ABI PRISM 7900HT Sequence Detection System using the following program: 50° C. for 2 minutes, 60° C. for 30 minutes, 95° C. for 5 minutes, 40 cycles of 94° C. for 20 sec, 55° C. for 1 minutes.
(§3) The amount of HCV replicon RNA per cell is quantified using a linear regression curve for a known nanogram (ng) amount of HCV replicon total RNA. This is established by plotting the Cycle Threshold values (Ct) from the Neo probe and primer set versus the log (ng) for each HCV replicon total RNA standard. The amount of HCV RNA for each replicon sample is calculated by taking the sample's Ct value, minus the line intercept, divided by the slope of the line. Similarly, the amount of Cyclophilin mRNA per cell is also quantified using a linear regression curve for a known nanogram (ng) amount of HCV replicon total RNA. Again, this is established by plotting the Cycle Threshold values (Ct) from the Cyclophilin probe and primer set versus the log (ng) for each HCV replicon total RNA standard.
(§4) Data was obtained for various compounds of the present invention using the methods described in the Example above, and is presented in the table immediately below. Data for replicons 1A, 1AY93H and 2B were obtained using Replicon Assay A and data for replicons 1AQ30D and 1B were obtained using Replicon Assay B.

HCV replicon 1A = assay: Cell-based HCV Replicon Assay A, replicon 1A
Description: as §1, §2, §3, §4

HCV replicon 1AY93H = assay: Cell-based HCV Replicon Assay A, replicon 1AY93H
Description: as §1, §2, §3, §4

[1] = read-out: 1A Y93H IC50, replicon 1AY93H
[2] = replicon 1AY93H, read-out: 1A Y93H IC50
[3] = Hepatitis C virus, read-out: 2B IC50 (nM), replicon 2B
[4] = Hepatitis C virus, read-out: 1A Y93H IC50 (nM), replicon 1AY93H

Row | Structure (SMILES) | IC50 (HCV replicon 2B; read-out: 2B IC50, replicon 2B) [nM] | IC50 (HCV replicon 1A; Hepatitis C virus) [nM] | IC50 (HCV replicon 1AY93H; [1]) [nM] | IC50 (HCV replicon 1A) [nM] | other results
1 | CCc1ncc(C2Oc3cc(-c4cnc([C@@H]5CCCN5C(=O)[C@@H](NC(=O)OC)C(C)C)[nH]4)cc(F)c3-c3cc4cc(-c5cnc([C@@H]6CCCN6C(=O)C(NC(=O)OC)C6CCOC(C)(C)C6)[nH]5)ccc4n32)s1 (single isomer, unassigned) [Compound 37] | 0.226 | 0.0022 | 0.257 |  | 
2 | COC(=O)N[C@H](C(=O)N1CCC[C@H]1c1ncc(-c2cc(F)c3c(c2)OC(c2cnc(OC)s2)n2c-3cc3cc(-c4cnc([C@@H]5CCCN5C(=O)[C@@H](NC(=O)OC)C(C)C)[nH]4)ccc32)[nH]1)C(C)C (single isomer, unassigned) [Compound 13] | 0.446 | 0.0011 | 0.621 |  | 
3 | CCc1ncc(C2Oc3cc(-c4cnc([C@@H]5CCCN5C(=O)[C@@H](NC(=O)OC)C(C)C)[nH]4)cc(F)c3-c3cc4cc(-c5cnc([C@@H]6CCCN6C(=O)C(NC(=O)OC)C6CCOC(C)(C)C6)[nH]5)ccc4n32)s1 (single isomer, unassigned) [Compound 38] |  |  | 0.204 | 0.0029 | 
4 | COC(=O)N[C@H](C(=O)N1CCC[C@H]1c1ncc(-c2cc(F)c3c(c2)OC(c2cnc(CC4CC4)s2)n2c-3cc3cc(-c4cnc([C@@H]5CCCN5C(=O)[C@@H](NC(=O)OC)C(C)C)[nH]4)ccc32)[nH]1)C(C)C (single isomer, unassigned) [Compound 510] |  |  |  | 0.001 | IC50 (HCV replicon 2B; replicon 2B, read-out: 2B IC50): 0.624 nM; IC50 (HCV replicon 1AY93H; [2]): 0.629 nM
5 | COC(=O)N[C@H](C(=O)N1CCC[C@H]1c1ncc(-c2cc(F)c3c(c2)OC(c2cnc(CC(C)(C)C)s2)n2c-3cc3cc(-c4cnc([C@@H]5CCCN5C(=O)[C@@H](NC(=O)OC)C(C)C)[nH]4)ccc32)[nH]1)C(C)C (single isomer, unassigned) [Compound 523] |  |  |  | 0.0012 | IC50 (HCV replicon 1AY93H; [2]): 0.13 nM
6 | CCC(CC)c1ncc(C2Oc3cc(-c4cnc([C@@H]5CCCN5C(=O)[C@@H](NC(=O)OC)C(C)C)[nH]4)cc(F)c3-c3cc4cc(-c5cnc([C@@H]6CCCN6C(=O)[C@@H](NC(=O)OC)C(C)C)[nH]5)ccc4n32)s1 (single isomer, unassigned) [Compound 421] |  |  |  | 0.0037 | IC50 (HCV replicon 2B; [3]): 0.103 nM; IC50 (HCV replicon 1AY93H; [4]): 0.014 nM
7 | COC(=O)N[C@H](C(=O)N1CCC[C@H]1c1ncc(-c2cc(F)c3c(c2)OC(c2ncc(C4CC4)s2)n2c-3cc3cc(-c4cnc([C@@H]5CCCN5C(=O)[C@@H](NC(=O)OC)C(C)C)[nH]4)ccc32)[nH]1)C(C)C (single isomer, unassigned) [Compound 8] | 0.14 |  | 0.15 | 0.0017 | 
8 | COC(=O)NC(C(=O)N1[C@@H]2C[C@@H]2C[C@H]1c1ncc(-c2ccc3c(c2)cc2n3C(c3ncc(C4CC4)s3)Oc3cc(-c4cnc([C@@H]5CCCN5C(=O)[C@@H](NC(=O)OC)C(C)C)[nH]4)cc(F)c3-2)[nH]1)C1C[C@@H](C)O[C@@H](C)C1 (single isomer, unassigned) [Compound 64] | 0.268 | 0.0012 | 0.159 |  | 
9 | COC(=O)N[C@H](C(=O)N1CCC[C@H]1c1ncc(-c2cc(F)c3c(c2)OC(c2cnc(-c4ccc(F)cc4F)s2)n2c-3cc3cc(-c4cnc([C@@H]5CCCN5C(=O)[C@@H](NC(=O)OC)C(C)C)[nH]4)ccc32)[nH]1)C(C)C (single isomer, unassigned) [Compound 99] | 0.1 |  | 0.26 | 0.0016 | 
10 | CCCc1ncc(C2Oc3cc(-c4cnc([C@@H]5CCCN5C(=O)[C@@H](NC(=O)OC)C(C)C)[nH]4)cc(C)c3-c3cc4cc(-c5cnc([C@@H]6C[C@H]7C[C@H]7N6C(=O)[C@@H](NC(=O)OC)C(C)C)[nH]5)ccc4n32)s1 (single isomer, unassigned) [Compound 205] | 0.57 | 0.006 | 2.46 |  | 
11 | COC(=O)NC(C(=O)N1CCC[C@H]1c1ncc(-c2ccc3c(c2)cc2n3C(c3cnc(-c4ccc(F)cc4)s3)Oc3cc(-c4cnc([C@@H]5CCCN5C(=O)[C@@H](NC(=O)OC)C(C)C)[nH]4)cc(F)c3-2)[nH]1)C1C[C@@H](C)O[C@@H](C)C1 (single isomer, unassigned) [Compound 80] | 0.047 | 0.0015 | 0.0504 |  | 
12 | COC(=O)N[C@H](C(=O)N1CCC[C@H]1c1ncc(-c2cc(F)c3c(c2)OC(c2nc4ccccc4s2)n2c-3cc3cc(-c4cnc([C@@H]5CCCN5C(=O)[C@@H](NC(=O)OC)C(C)C)[nH]4)ccc32)[nH]1)C(C)C (single isomer, unassigned) [Compound 401] | 0.634 | 0.0085 |  |  | IC50 (HCV replicon 1AY93H; [4]): 0.346 nM
13 | COC(=O)NC(C(=O)N1CCC[C@H]1c1ncc(-c2ccc3c(c2)cc2n3C(c3cnc(C(C)C)s3)Oc3cc(-c4cnc([C@@H]5CCCN5C(=O)[C@@H](NC(=O)OC)C(C)C)[nH]4)cc(F)c3-2)[nH]1)C1CCOC(C)(C)C1 (single isomer, unassigned) [Compound 63] | 1.67 |  | 0.254 | 0.0483 | 
14 | COC(=O)NC(C(=O)N1[C@@H]2C[C@@H]2C[C@H]1c1ncc(-c2ccc3c(c2)cc2n3C(c3cnc(C4CCCC4)s3)Oc3cc(-c4cnc([C@@H]5CCCN5C(=O)[C@@H](NC(=O)OC)C(C)C)[nH]4)cc(F)c3-2)[nH]1)C(C)(C)F (single isomer, unassigned) [Compound 328] | 0.163 |  | 0.0463 | 0.0015 | 
15 | COC(=O)N[C@H](C(=O)C1CCC[C@H]1c1ncc(-c2ccc3c(c2)cc2n3C(c3cnc(CC(C)C)s3)Oc3cc(-c4cnc([C@@H]5CCCN5C(=O)[C@@H](NC(=O)OC)C(C)C)[nH]4)cc(F)c3-2)[nH]1)C(C)C (mixture of isomers) [Compound 403] |  | 0.0064 |  |  | IC50 (HCV replicon 2B; [3]): 0.142 nM; IC50 (HCV replicon 1AY93H; [4]): 0.016 nM
16 | CCCc1ncc(C2Oc3cc(-c4cnc([C@@H]5CCCN5C(=O)[C@@H](NC(=O)OC)C(C)C)[nH]4)cc(F)c3-c3cc4cc(-c5cnc([C@@H]6C[C@H]7C[C@H]7N6C(=O)[C@@H](NC(=O)OC)C(C)C)[nH]5)ccc4n32)s1 (single isomer, unassigned) [Compound 91] | 0.17 |  | 0.0537 | 0.0021 | 
17 | COC(=O)NC(C(=O)N1CCC[C@H]1c1ncc(-c2ccc3c(c2)cc2n3C(c3cnc(C(C)C)s3)Oc3cc(-c4cnc([C@@H]5CCCN5C(=O)[C@@H](NC(=O)OC)C(C)C)[nH]4)cc(F)c3-2)[nH]1)C1CCOC(C)(C)C1 (single isomer, unassigned) [Compound 62] | 0.427 |  |  | 0.0018 | IC50 (HCV replicon 1AY93H; [4]): 0.212 nM
18 | COC(=O)N[C@H](C(=O)N1CCC[C@H]1c1ncc(-c2cc(F)c3c(c2)OC(c2nc(C(F)(F)F)cs2)n2c-3cc3cc(-c4cnc([C@@H]5CCCN5C(=O)[C@@H](NC(=O)OC)C(C)C)[nH]4)ccc32)[nH]1)C(C)C (single isomer, unassigned) [Compound 420] | 5.56 |  | 1.87 | 0.0101 | 
19 | COC(=O)N[C@H](C(=O)N1CCC[C@H]1c1ncc(-c2cc(F)c3c(c2)OC(c2cnc(-c4ccc(C)o4)s2)n2c-3cc3cc(-c4cnc([C@@H]5CCCN5C(=O)[C@@H](NC(=O)OC)C(C)C)[nH]4)ccc32)[nH]1)C(C)C (single isomer, unassigned) [Compound 413] | 0.173 | 0.0036 |  |  | IC50 (HCV replicon 1AY93H; [4]): 0.0196 nM
20 | CCc1nnc(C2Oc3cc(-c4cnc([C@@H]5CCCN5C(=O)[C@@H](NC(=O)OC)C(C)C)[nH]4)cc(F)c3-c3cc4cc(-c5cnc([C@@H]6CCCN6C(=O)C(NC(=O)OC)C(C)C)[nH]5)ccc4n32)s1 (single isomer, unassigned) [Compound 115] |  |  |  | 0.008 | IC50 (HCV replicon 1AY93H; [4]): 0.79 nM
21 | COC(=O)NC(C(=O)N1[C@@H]2C[C@@H]2C[C@H]1c1ncc(-c2ccc3c(c2)cc2n3C(c3cnc(C(C)C)s3)Oc3cc(-c4cnc([C@@H]5CCCN5C(=O)[C@@H](NC(=O)OC)C(C)C)[nH]4)cc(F)c3-2)[nH]1)C1CCOC(C)(C)C1 (single isomer, unassigned) [Compound 69] |  |  | 2.87 | 0.0424 | 
22 | COC(=O)N[C@H](C(=O)N1CCC[C@H]1c1ncc(-c2cc(F)c3c(c2)OC(c2cnc(C4CCCC4)s2)n2c-3cc3cc(-c4cnc([C@@H]5CCCN5C(=O)[C@@H](NC(=O)OC)C(C)C)[nH]4)ccc32)[nH]1)C(C)C (single isomer, unassigned) [Compound 26] | 0.449 |  | 0.126 |  | 
23 | COC(=O)N[C@H](C(=O)N1CCC[C@H]1c1ncc(-c2cc(F)c3c(c2)OC(c2cnc(C(F)F)s2)n2c-3cc3cc(-c4cnc([C@@H]5CCCN5C(=O)[C@@H](NC(=O)OC)C(C)C)[nH]4)ccc32)[nH]1)C(C)C (single isomer, unassigned) [Compound 19] | 0.933 |  | 1.24 |  | 
